Patent US20220193042A1, “NITAZOXANIDE AND THIAZOLIDES FOR USE IN THE TREATMENT OF DISEASES ASSOCIATED WITH OXIDATIVE STRESS” (GENFIT, priority 2019, published 2022)

What was measured:
Nrf2 target genes = experiment: Enrichment of Nrf2 target genes in hepatic transcriptome (RNAseq), CDAA/c NASH model; assay type: in vivo, C57Bl/6J mice; conditions: NTZ+CDAA/c vs CDAA/c; Nrf2 target genes are 1.3% of whole identified transcriptome
Procedure: In the current study, the preventive effects of NTZ 100 mg/kg/day were assessed in a murine model. 6 week-old male C57Bl/6J mice were fed a control (CSAA) diet (n=8), CDAA+1% cholesterol diet (n=12), or CDAA+1% cholesterol diet supplemented with NTZ 100 mg/kg/day (n=8) for 12 weeks. The food was purchased from Ssniff® company (Soest, Germany). Nitazoxanide (Interchim, Ref #RQ550) was incorporated by Ssniff® into CDAA+1% chol diet in powder form to the required dose.
The body weight and the food intake were monitored twice per week. On the last day of treatment, mice were sacrificed after a 6 h fasting period. The liver was rapidly excised for transcriptomic and histological studies.
Upon measurement of RNA samples concentration by nanodrop, the quality was assessed using bioanalyser. […]
Reads were cleaned using Trimmomatic v.0.36 with the following parameters: SLIDINGWINDOW:5:20 LEADING:30 TRAILING:30 MINLEN:60.Then reads were aligned on the genome reference (Mus musculus GRCm38.90) with rnacocktail using hisat2 v.2.1.0 as aligner with default parameters. […]
To identify differentially expressed genes (DE genes), we used R (version 3.4.3) and the DESEa2 library (v. 1.18.1). […] Briefly, the count matrix produced by FeatureCounts was analyzed by the DESeqDataSetFromMatrixO function followed by the DEseq( ) function from the DESeq2 library. […]

Nrf2-ARE signaling = experiment: ARE Reporter - HepG2 cell line luciferase assay; assay type: cell-based, human; conditions: 1 μM TZ, 18 h exposure, vs vehicle
Procedure: ARE Reporter—Hep G2 cells(BPS Bioscience, Inc., San Diego cat #60513) were cultured following manufacturer's instructions. After thawing (BPS thaw medium 1, cat #60187), cells were cultured in growth-medium (BPS growth medium 1K, cat #79533) and subsequently plated at a density of 40 000 cells par well in a 96-well microplate in 45 μl of assay medium (BPS thaw medium). TZ (Interchim; cat #RP253) & DL-Sulforaphane (Sigma; cat #S4441) were dissolved in DMSO and diluted into assay medium. 5 μl of 10× dilution were added on cells to reach a final concentration of 1 μM and 3 μM for TZ and DL-Sulforaphane (DL-Sulfo) respectively. After 18 h exposure, luciferase activity was determined. 50 μl of One-Step Luciferase assay system (BPS cat #60690) were added per well and after −15 min of rocking at room temperature, luminescence was measured using a luminometer.

Hep G2 cells = experiment: Intracellular GSH detection (ThiolTracker Violet) in menadione-stressed Hep G2 cells; assay type: cell-based, human; conditions: 1 μM TZ preincubated 1 hour, then 100 μM menadione for 2 hours
Procedure: Tizoxanide (Interchim; cat #RP253) was dissolved in DMF (Sigma; cat #227056). Menadione (Sigma; cat #M2518) and N-Acetylcysteine were dissolved (Sigma; cat #A9165) in water. Hep G2 cells (ECACC) were plated at a density of 20 000 cells par well into a 96-well microplate in 100 μl of DMEM (Gibco; cat #41965-039) supplemented with 1% P/S (Gibco; cat #15140-122), 1% glutamine(Gibco; cat #25030-024).The complete medium contained 10% SVF (Gibco; cat #10270-106). The next day, culture medium was removed and replaced by 100 μL of DMEM (Gibco; cat #31053-028) without Red Phenol and SVF but supplemented with 1% P/S (Gibco; cat #15140-122), 1% glutamine(Gibco; cat #25030-024). The serum deprived HepG2 were preincubated for 1 hour with TZ or N-Acetylcysteine (NAC) then exposed to Menadione (MND) for 2 hours. Compounds were dissolved in their respective vehicles a mentioned above and diluted in the deprived culture medium. […] The cellular level of reduced glutathione was subsequently monitored using the ThiolTracker Violet dye (Invitrogen, cat #T10096). Briefly, cells were washed two times with DPBS (Invitrogen, Cat #14287-080) then incubated for 30 min at 37° with 100 μl of prewarmed ThiolTracker Violet dye solution prepared in DPBS according the supplier 's instructions and fluorescence was measured (Ex:404 nm, Em: 526 nm)

| Compound | proportion of Nrf2-regulated genes among all differentially expressed genes (Nrf2 target genes) | ARE-mediated luciferase activity (ARE-mediated transcription) (Nrf2-ARE signaling) | prevention of MND-induced reduction of cellular GSH (Hep G2 cells) |
| --- | --- | --- | --- |
| CC(=O)Oc1ccccc1C(=O)Nc1ncc([N+](=O)[O-])s1 [NTZ, [2-[(5-nitro-1,3-thiazol-2-yl)carbamoyl]phenyl]ethanoate] | more than 8% | – | – |
| O=C(Nc1ncc([N+](=O)[O-])s1)c1ccccc1O [TZ, Tizoxanide] | – | significant increase | totally prevented |
